Assay results from ChEMBL document CHEMBL1909046, “DrugMatrix in vitro pharmacology data”.
Where a SMILES comes first, the peptide text is derived from it. Bridges are numbered along the chain shown (N, C = ends). [ ]: non-standard residue; d: D form. The star is where a group is joined. Ileψ(thiazoline)Cys = CC[C@H](C)[C@H](N)C1=N[C@H](C(=O)*)CS1; dOrn = NCCC[C@@H](N)C(=O)O

Experiments:
[1] = biological target: T1, Alpha-1B adrenergic receptor (Rattus norvegicus, UniProt P15823); experiment: DRUGMATRIX: Alpha-1B adrenergic receptor radioligand binding (ligand: prazosin); format: cell membranes, Wistar, Liver, Membrane; conditions: Not Active = under 50% inhibition at 10 µM
T1 sequence (P15823 whole entry): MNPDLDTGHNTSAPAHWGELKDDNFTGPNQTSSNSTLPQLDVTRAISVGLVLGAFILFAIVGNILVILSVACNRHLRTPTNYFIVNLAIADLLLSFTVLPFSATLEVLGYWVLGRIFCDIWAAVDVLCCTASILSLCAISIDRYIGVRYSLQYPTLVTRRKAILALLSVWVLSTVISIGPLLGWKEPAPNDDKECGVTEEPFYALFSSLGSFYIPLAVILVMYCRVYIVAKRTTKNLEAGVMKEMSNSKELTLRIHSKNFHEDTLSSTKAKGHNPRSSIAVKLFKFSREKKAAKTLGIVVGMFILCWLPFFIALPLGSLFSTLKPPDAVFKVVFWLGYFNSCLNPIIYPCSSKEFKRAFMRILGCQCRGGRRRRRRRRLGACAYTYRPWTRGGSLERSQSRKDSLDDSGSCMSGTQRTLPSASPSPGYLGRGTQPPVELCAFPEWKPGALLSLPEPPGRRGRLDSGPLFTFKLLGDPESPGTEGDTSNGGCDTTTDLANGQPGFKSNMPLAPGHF

[2] = biological target: T2, Alpha-2C adrenergic receptor (Homo sapiens, UniProt P18825); experiment: DRUGMATRIX: Adrenergic Alpha-2C radioligand binding (ligand: [3H] MK-912); format: cell membranes, Sf9, Membrane
T2 sequence (P18825 whole entry): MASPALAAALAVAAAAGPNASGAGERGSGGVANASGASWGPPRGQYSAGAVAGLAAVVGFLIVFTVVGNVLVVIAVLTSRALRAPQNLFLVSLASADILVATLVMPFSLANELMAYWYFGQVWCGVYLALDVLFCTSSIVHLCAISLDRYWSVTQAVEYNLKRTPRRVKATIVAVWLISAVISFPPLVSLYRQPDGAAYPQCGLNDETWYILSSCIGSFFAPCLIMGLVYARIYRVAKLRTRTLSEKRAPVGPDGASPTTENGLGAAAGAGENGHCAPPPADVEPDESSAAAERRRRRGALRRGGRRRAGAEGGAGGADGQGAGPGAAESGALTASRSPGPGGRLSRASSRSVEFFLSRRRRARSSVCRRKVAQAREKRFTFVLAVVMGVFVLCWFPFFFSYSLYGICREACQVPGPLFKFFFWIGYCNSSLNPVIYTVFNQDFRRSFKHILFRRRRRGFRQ

[3] = DRUGMATRIX: Atrial Natriuretic Factor (ANF) radioligand binding (ligand: [125I] ANF (rat)); format: cell membranes, Cavia porcellus, Dunkin-Hartley, Adrenal gland, Membrane; conditions: Not Active = under 50% inhibition at 10 µM
[4] = DRUGMATRIX: beta-Lactamase enzyme inhibition (substrate: Nitrocefin); design: species or system Bacillus cereus; conditions: Not Active = under 50% inhibition at 10 µM
[5] = DRUGMATRIX: Calcium Channel Type L, Benzothiazepine radioligand binding (ligand: [3H] Diltiazem); format: cell membranes, Rattus norvegicus, Wistar, Brain, Membrane; conditions: Not Active = under 50% inhibition at 10 µM
[6] = DRUGMATRIX: Calcium Channel Type L, Dihydropyridine radioligand binding (ligand: [3H] Nitrendipine); format: cell membranes, Rattus norvegicus, Wistar, Cerebral cortex, Membrane; conditions: Not Active = under 50% inhibition at 10 µM
[7] = DRUGMATRIX: Serotonin (5-Hydroxytryptamine) 5-HT3 radioligand binding (ligand: [3H] GR-65630); format: cell membranes, Membrane; conditions: hek293; Not Active = under 50% inhibition at 10 µM
[8] = biological target: Vasopressin V1a receptor (Homo sapiens, UniProt P37288); format: cell membranes, Membrane; conditions: hek293; also: in other assays of this panel Not Active means under 50% inhibition at 10 µM
Chain of Vasopressin V1a receptor (P37288 whole entry): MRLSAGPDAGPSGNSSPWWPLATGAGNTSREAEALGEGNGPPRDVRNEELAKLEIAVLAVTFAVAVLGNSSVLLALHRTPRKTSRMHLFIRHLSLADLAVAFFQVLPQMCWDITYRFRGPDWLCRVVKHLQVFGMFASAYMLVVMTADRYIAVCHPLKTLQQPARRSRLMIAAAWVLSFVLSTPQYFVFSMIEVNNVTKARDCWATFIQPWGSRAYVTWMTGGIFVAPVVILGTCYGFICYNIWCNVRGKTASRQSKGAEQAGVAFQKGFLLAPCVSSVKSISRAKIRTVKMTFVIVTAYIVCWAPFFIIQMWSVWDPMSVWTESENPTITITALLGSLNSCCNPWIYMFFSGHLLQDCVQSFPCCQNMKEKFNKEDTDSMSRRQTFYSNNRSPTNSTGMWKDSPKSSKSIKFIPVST

[9] = biological target: C-C chemokine receptor type 2 (Homo sapiens, UniProt P41597); format: cell membranes, CHO-K1, Membrane; conditions: cho-k1; also: in other assays of this panel Not Active means under 50% inhibition at 10 µM
Chain of C-C chemokine receptor type 2 (P41597 whole entry): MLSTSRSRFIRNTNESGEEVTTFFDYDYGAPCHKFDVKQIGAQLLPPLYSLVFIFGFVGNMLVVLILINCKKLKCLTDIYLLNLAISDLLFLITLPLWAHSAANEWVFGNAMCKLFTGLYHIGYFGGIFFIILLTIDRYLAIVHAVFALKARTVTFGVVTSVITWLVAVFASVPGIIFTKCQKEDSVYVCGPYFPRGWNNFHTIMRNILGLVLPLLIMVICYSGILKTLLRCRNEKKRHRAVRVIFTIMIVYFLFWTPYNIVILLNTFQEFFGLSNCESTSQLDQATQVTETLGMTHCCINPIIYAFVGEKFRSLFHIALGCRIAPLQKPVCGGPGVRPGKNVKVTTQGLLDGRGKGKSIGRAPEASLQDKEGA

[10] = DRUGMATRIX: GABAA, Chloride Channel, TBOB radioligand binding (ligand: [3H] TBOB); format: cell membranes, Rattus norvegicus, Wistar, Cerebral cortex, Membrane; conditions: Not Active = under 50% inhibition at 10 µM
[11] = biological target: T3, Leukotriene C4 synthase (Cavia porcellus, UniProt A6XA80); experiment: biochemical; format: tissue-based, Lung;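 also: enzyme inhibition assay of leukotriene C4 synthase, using LTA4 as the substrate; in other assays of this panel Not Active means under 50% inhibition at 10 µM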
T3 sequence (A6XA80 whole entry): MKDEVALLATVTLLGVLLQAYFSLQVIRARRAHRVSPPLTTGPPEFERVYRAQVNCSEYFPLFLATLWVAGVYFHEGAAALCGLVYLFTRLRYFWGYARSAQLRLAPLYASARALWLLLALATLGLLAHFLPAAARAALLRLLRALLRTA

[12] = biological target: cGMP-specific 3',5'-cyclic phosphodiesterase (Homo sapiens, UniProt O76074); experiment: DRUGMATRIX: Phosphodiesterase PDE5 enzyme inhibition (substrate: [3H]cGMP + cGMP); format: tissue-based, Platelet; conditions: platelet; Not Active = under 50% inhibition at 10 µM
[13] = biological target: T4, 5-hydroxytryptamine receptor 1A (Rattus norvegicus, UniProt P19327); format: cell membranes, CHO-K1, Membrane; also: in other assays of this panel Not Active means under 50% inhibition at 10 µM
T4 sequence (P19327 whole entry): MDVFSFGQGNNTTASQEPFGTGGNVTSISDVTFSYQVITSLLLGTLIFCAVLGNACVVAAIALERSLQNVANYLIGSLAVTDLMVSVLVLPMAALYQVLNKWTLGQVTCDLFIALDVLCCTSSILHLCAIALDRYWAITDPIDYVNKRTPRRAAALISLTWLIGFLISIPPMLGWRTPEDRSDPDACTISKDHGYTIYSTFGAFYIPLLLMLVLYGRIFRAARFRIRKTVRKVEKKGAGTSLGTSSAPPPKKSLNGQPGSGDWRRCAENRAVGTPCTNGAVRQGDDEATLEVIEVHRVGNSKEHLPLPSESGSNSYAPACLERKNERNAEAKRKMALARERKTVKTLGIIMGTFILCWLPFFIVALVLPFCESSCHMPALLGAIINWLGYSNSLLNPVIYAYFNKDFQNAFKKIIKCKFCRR

[14] = biological target: Acetylcholinesterase (Homo sapiens, UniProt P22303); experiment: DRUGMATRIX: Acetylcholinesterase enzyme inhibition (substrate: acetylthiocholine); format: cell-based, HEK293; conditions: hek293; Not Active = under 50% inhibition at 10 µM
Chain of Acetylcholinesterase (P22303 whole entry): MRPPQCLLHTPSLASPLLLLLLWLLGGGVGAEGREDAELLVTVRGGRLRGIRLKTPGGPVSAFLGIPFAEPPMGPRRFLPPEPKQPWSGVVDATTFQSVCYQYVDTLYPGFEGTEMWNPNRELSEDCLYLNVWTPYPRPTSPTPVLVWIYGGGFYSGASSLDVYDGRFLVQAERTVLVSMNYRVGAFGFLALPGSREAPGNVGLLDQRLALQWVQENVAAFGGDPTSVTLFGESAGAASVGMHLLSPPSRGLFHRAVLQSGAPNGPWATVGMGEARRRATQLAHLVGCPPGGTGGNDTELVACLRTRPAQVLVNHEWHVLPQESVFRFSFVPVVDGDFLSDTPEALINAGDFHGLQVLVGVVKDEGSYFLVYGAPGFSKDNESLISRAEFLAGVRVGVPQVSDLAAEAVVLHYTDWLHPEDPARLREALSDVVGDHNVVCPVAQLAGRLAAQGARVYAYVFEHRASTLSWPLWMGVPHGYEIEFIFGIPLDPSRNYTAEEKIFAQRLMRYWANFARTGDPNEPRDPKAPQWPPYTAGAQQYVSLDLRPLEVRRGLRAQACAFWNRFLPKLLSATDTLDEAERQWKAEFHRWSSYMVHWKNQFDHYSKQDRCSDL

[15] = biological target: Cytochrome P450 3A4 (Homo sapiens, UniProt P08684); conditions: bti-tn-5b1-4; also: in other assays of this panel Not Active means under 50% inhibition at 10 µM
Chain of Cytochrome P450 3A4 (P08684 whole entry): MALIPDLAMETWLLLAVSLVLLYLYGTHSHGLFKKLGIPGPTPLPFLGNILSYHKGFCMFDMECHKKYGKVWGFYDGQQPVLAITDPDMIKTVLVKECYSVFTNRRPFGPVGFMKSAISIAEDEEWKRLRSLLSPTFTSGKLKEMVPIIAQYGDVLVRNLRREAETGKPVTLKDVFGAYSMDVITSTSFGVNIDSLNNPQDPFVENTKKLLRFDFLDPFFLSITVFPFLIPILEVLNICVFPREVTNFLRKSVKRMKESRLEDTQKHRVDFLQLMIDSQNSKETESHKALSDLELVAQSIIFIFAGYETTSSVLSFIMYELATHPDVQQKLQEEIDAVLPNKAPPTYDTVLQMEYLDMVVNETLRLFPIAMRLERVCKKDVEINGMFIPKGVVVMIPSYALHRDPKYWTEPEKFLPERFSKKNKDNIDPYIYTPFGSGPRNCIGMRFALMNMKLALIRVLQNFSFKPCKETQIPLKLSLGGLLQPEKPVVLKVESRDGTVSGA

[16] = biological target: Voltage-gated inwardly rectifying potassium channel KCNH2 (Homo sapiens, UniProt Q12809); conditions: hek293; also: in other assays of this panel Not Active means under 50% inhibition at 10 µM
Chain of Voltage-gated inwardly rectifying potassium channel KCNH2 (Q12809 whole entry): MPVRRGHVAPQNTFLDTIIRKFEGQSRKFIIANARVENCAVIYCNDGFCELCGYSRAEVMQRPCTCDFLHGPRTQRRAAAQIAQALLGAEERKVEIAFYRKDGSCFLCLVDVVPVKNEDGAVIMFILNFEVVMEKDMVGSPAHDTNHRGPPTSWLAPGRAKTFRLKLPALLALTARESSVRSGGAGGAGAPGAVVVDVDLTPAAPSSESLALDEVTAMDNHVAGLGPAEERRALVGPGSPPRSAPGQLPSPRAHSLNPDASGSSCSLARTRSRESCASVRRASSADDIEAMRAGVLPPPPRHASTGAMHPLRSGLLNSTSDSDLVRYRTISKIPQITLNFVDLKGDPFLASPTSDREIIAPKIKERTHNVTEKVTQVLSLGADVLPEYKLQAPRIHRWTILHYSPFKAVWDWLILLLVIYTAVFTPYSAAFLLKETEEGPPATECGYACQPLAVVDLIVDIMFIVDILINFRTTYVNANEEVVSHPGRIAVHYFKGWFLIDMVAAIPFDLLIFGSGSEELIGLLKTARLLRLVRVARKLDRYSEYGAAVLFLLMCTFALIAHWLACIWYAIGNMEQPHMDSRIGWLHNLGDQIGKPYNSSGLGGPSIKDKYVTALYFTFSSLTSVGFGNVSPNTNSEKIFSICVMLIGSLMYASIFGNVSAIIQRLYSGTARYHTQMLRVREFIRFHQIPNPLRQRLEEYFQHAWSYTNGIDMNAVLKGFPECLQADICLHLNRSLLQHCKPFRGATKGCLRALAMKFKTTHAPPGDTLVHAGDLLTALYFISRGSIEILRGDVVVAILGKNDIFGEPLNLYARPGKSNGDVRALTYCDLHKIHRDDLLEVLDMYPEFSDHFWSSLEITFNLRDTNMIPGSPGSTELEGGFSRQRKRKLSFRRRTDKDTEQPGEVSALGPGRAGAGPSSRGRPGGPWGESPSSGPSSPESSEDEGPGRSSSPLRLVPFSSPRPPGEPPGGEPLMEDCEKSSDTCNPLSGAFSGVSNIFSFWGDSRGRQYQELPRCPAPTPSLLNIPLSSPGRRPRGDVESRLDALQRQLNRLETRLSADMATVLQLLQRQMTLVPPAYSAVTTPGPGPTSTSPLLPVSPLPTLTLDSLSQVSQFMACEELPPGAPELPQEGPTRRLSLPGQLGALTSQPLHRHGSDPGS

Row | SMILES | IC50 [1] | IC50 [3] | Ki [3] | IC50 [4] | Ki [4] | IC50 [5] | Ki [5] | IC50 [6] | Ki [6] | IC50 [7] | Ki [7] | IC50 [8] | IC50 [9] | IC50 [10] | Ki [10] | IC50 [11] | IC50 [12] | IC50 [14] | IC50 [15] | Ki [15] | further results
1 | CC[C@H](C)[C@H](N)C1=N[C@H](C(=O)N[C@@H](CC(C)C)C(=O)N[C@H](CCC(=O)O)C(=O)N[C@H](C(=O)N[C@H]2CCCCNC(=O)[C@H](CC(N)=O)NC(=O)[C@@H](CC(=O)O)NC(=O)[C@H](Cc3cnc[nH]3)NC(=O)[C@@H](Cc3ccccc3)NC(=O)[C@H]([C@@H](C)CC)NC(=O)[C@@H](CCCN)NC2=O)[C@@H](C)CC)CS1 [BACITRACIN] ({Ileψ(thiazoline)Cys}-L[dE]IK[dOrn]I[dF]H[dD]N; lactam 4-C) | Not Active | Not Active | Not Active | Not Active | Not Active | Not Active | Not Active | Not Active | Not Active | Not Active | Not Active | Not Active | Not Active | Not Active | Not Active | Not Active | Not Active | Not Active | Not Active | Not Active | IC50 ([2]; sf9): Not Active; IC50 ([13]; cho-k1): Not Active; IC50 [16]: Not Active; Ki [16]: Not Active
2 | Oc1c(Cl)cc(Cl)cc1Sc1cc(Cl)cc(Cl)c1O [BITHIONOL] | Not Active | Not Active | Not Active | Not Active | Not Active | Not Active | Not Active | Not Active | Not Active | Not Active | Not Active | Not Active | Not Active | Not Active | Not Active | Not Active | Not Active | Not Active | Not Active | Not Active | IC50 ([2]; read-out: IC50): 4.39 µM; Ki ([2]; read-out: Ki): 0.638 µM; IC50 ([13]; read-out: IC50): 5.51 µM; Ki ([13]; read-out: Ki): 3.15 µM; IC50 [16]: Not Active; Ki [16]: Not Active
3 | CC(/C=C1\SC(=S)N(CC(=O)O)C1=O)=C\c1ccccc1 | Not Active | Not Active | Not Active | Not Active | Not Active | Not Active | Not Active | Not Active | Not Active | Not Active | Not Active | Not Active | Not Active | Not Active | Not Active | Not Active | Not Active | Not Active | Not Active | Not Active | IC50 ([2]; sf9): Not Active; IC50 ([13]; cho-k1): Not Active; IC50 [16]: Not Active; Ki [16]: Not Active
4 | CC(=O)O[C@]1(C(C)=O)CC[C@H]2[C@@H]3C=C(Cl)C4=CC(=O)CC[C@]4(C)[C@H]3CC[C@@]21C [CHLORMADINONE ACETATE] | Not Active | Not Active | Not Active | Not Active | Not Active | Not Active | Not Active | Not Active | Not Active | Not Active | Not Active | Not Active | Not Active | Not Active | Not Active | Not Active | Not Active | Not Active | Not Active | Not Active | IC50 ([2]; sf9): Not Active; IC50 ([13]; cho-k1): Not Active; IC50 [16]: Not Active; Ki [16]: Not Active
5 | CN1CCC[C@H]1c1cccnc1 [NICOTINE] | Not Active | Not Active | Not Active | Not Active | Not Active | Not Active | Not Active | Not Active | Not Active | Not Active | Not Active | Not Active | Not Active | Not Active | Not Active | Not Active | Not Active | Not Active | Not Active | Not Active | IC50 ([2]; sf9): Not Active; IC50 ([13]; cho-k1): Not Active; IC50 [16]: Not Active; Ki [16]: Not Active
6 | NCC[C@H](O)C(=O)N[C@@H]1C[C@H](N)[C@@H](O[C@H]2O[C@H](CN)[C@@H](O)[C@H](O)[C@H]2O)[C@H](O)[C@H]1O[C@H]1O[C@H](CO)[C@@H](O)[C@H](N)[C@H]1O [AMIKACIN] | Not Active | Not Active | Not Active | Not Active | Not Active | Not Active | Not Active | Not Active | Not Active | Not Active | Not Active | Not Active | Not Active | Not Active | Not Active | Not Active | Not Active | Not Active | Not Active | Not Active | IC50 ([2]; sf9): Not Active; IC50 ([13]; cho-k1): Not Active; IC50 [16]: Not Active; Ki [16]: Not Active
